# Measurements: patent US20100074897A1, “Methods and Compositions related to HIF-1 alpha” (University of Utah Research Foundation, priority 2006, published 2010)
# T1: recombinant PKD1 (Homo sapiens, UniProt Q15139)
# T1 construct: purchased Upstate Biotechnology
# T1 sequence (Q15139 1-912): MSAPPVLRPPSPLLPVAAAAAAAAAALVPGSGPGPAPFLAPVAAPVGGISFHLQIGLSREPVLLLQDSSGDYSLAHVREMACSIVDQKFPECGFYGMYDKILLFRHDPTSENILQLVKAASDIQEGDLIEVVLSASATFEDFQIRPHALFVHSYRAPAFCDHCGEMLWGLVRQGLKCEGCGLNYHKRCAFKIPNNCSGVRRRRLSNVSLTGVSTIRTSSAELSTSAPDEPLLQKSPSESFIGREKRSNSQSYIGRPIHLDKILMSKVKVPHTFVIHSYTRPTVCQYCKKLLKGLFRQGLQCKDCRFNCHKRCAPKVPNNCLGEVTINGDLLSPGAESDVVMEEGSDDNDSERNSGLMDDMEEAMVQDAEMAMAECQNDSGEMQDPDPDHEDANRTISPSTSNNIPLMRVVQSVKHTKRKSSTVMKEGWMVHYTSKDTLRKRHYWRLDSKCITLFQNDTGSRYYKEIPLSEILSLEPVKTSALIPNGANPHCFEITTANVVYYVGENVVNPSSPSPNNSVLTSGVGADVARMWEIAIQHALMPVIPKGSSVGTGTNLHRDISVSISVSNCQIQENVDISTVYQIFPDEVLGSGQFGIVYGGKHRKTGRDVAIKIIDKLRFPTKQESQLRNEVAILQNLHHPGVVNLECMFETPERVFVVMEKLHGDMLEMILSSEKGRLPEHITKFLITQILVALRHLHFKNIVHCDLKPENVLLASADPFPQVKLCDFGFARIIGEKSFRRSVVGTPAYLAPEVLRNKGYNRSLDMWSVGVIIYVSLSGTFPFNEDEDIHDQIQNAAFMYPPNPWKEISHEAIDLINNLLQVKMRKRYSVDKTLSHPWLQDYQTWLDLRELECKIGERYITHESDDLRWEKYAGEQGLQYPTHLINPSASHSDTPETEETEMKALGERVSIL
# Tests used:
# HIF-2α = assay: Western blot after siRNA transfection of HCT116 cells; type: cell-based, human
# Experimental: Western Blot. Western blot analysis was carried out as described previously.
# (§1) RNA Interference. Transfection with siRNA duplexes and siRNA sequence information were described previously (Koshiji et al. 2005). CHK1 siRNA was described previously (Zhao et al. 2002). Luciferase siRNA was used as negative control.
# NBS1 [1] = assay: NBS1 mRNA levels by real-time PCR in HCT116 cells; type: cell-based, human
# Experimental: HCT116 TP53^+/+, HCT116 TP53^−/− cells (Koshiji et al., 2004), and U-2 OS were grown in McCoy's 5A medium (Invitrogen), and HeLa cells in DMEM. For hypoxic treatment, cells were incubated in a hypoxic chamber (Innova CO-48, New Brunswick Scientific) maintaining 1% O2 and 5% CO2. Recombinant adenovirus generation and infection were as previously described (Koshiji et al., 2004).
# Total RNA extraction, reverse transcription, and quantitative PCR were performed essentially as described previously (Koshiji et al., 2005). Taqman Gene Expression Assay kits for NBS1, MRE11A, RAD50, MSH2, and ACTB were purchased from Applied Biosystems. All experiments were repeated three times in triplicates, and representative results were presented as means±standard errors.
# CDC25A = CDC25A and PGK1 mRNA by real-time RT-PCR in siRNA-transfected HCT116 cells; type: cell-based, human; settings: siRNA 24 h then hypoxia 16 h
# Experimental: Real-Time RT-PCR. Real-time RT-PCR was performed essentially as described previously (Koshiji et al. 2005). Primer and probe (Applied Biosystems) sequences were as follows: CDC25A, forward 5′-[…]-3′ (SEQ ID NO: 25), reverse 5′-[…]-3′ (SEQ ID NO: 26), probe 5′-FAM-[…]-MGB-3′ (SEQ ID NO: 27). PGK-1 (FAM-MGB probe) and ACTB (VIC-MGB probe) were detected with endogenous control reagents from Applied Biosystems. β-actin primers and probe were included into each reaction for normalization. All the experiments were repeated three times in triplicate, and representative results were presented in mean±standard error.
# as §1
# U-2 OS cells = assay: immunofluorescent staining of γ-H2AX foci (DNA DSBs); type: cell-based
# Experimental: To ascertain the functional relevance of NBS1 repression by hypoxia, the extent of DNA damage was assessed by immunofluorescent staining of γ-H2AX foci, a most sensitive method for quantifying DNA DSBs (Rogakou et al, 1998, 1999). […] Furthermore, results also show strikingly colocalized foci of γ-H2AX and 53BP1, the latter of which is known to interact with various DNA repair proteins including γ-H2AX in response to DSBs (Schultz et al, 2000). Thus, hypoxic cells experience DNA DSBs, presumably resulting from the NBS1 repression.
# Immunofluorescence staining was performed essentially as described previously (Rogakou et al, 1999) with mouse anti-γ-H2AX antibody (Upstate) and rabbit anti-53BP1 (Novus Biologicals). Secondary antibodies were anti-mouse Alexa-546 and anti-rabbit Alexa-488 (Molecular Probes). Samples were mounted in antifade media, and were examined by fluorescent and laser-scanning confocal microscopy with a Nikon PCM 2000.
# recombinant PKD1 = molecular target: T1, recombinant PKD1; assay: in vitro kinase assay; type: biochemical
# Experimental: The procedure for the in vitro kinase assay was modified from a previous report (Storz et al, 2003). Briefly, recombinant PKD1 (Upstate Biotechnology) was used as the source of enzyme in 20 μl of kinase buffer (50 mM Tris/HCl, pH 7.4, 10 mM MgCl2, 2 mM dithiothreitol). The kinase reaction was carried out for 30 min at room temperature after addition of 10 μl of kinase substrate mixture (150 μM substrate peptide, 50 μM ATP, 10 μCi of [γ-^32P]ATP in kinase buffer). A PKD1-specific substrate (Santa Cruz Biotechnology) was employed as a positive control. […] The reactions were terminated by adding 100 μl of 0.75% H3PO4, and 30 μl of the mixed supernatant was spotted to P-81 phosphocellulose paper (Whatman) in triplicates. Papers were washed thoroughly three times with 0.75% phosphoric acid, once with acetone, dried, and radioactivity incorporated into the synthetic peptide was determined in a scintillation counter. Endogenous PKD1 was immunoprecipitated with an anti-PKD1 antibody (SC-935; Santa Cruz) from 786-O cells lysed in a buffer containing 137 mM NaCl, 20 mM Tris (pH 7.5), 1 mM EGTA, 1 mM EDTA, 10% (v/v) glycerol, 1% (v/v) Nonidet P-40, 1 mM vanadate, and protease inhibitor cocktail (Roche). The immune complexes were washed three times with TBS (50 mM Tris/HCl, pH 7.4, 150 mM NaCl) and subjected to in vitro kinase assays.
# Sp1 [2] = assay: anti-Sp1 immunoprecipitation followed by immunoblotting in HeLa cells; type: cell-based; settings: for Sp1 binding: expressed ectopically in HeLa cells
# Experimental: (§2) Immunoprecipitations and Western blot was performed essentially as described previously (Huang et al., 1998; Koshiji et al., 2005). In vitro translation and immunoprecipitations are described as before (Gu et al., 2001; Koshiji et al., 2005). The wheat germ extract system was purchased from Promega. λ protein phosphatase (New England Biolabs) and resveratrol (Sigma) with indicated concentrations were added to the in vitro translated products before immunoprecipitations.
# Sp1 [3] = assay: anti-Sp1 immunoprecipitation of in vitro translated products; type: binding, rabbit; settings: for Sp1 binding: produced in wheat germ extract (modification-deficient)
# Experimental: (§3) Previously, it was shown that Myc displacement is mediated by the N-terminal HIF-1α (1-329), which competes with Myc for Sp1 binding in the MSH2 promoter (Koshiji et al, 2005). […] […] […] Of note, removal of part of the PAS-B from the C terminus (codon 299-329) destroyed Sp1 binding.
# (§4) Immunoprecipitations and Western blot was performed essentially as described previously (Huang et al., 1998; Koshiji et al., 2005). In vitro translation and immunoprecipitations are described as before (Gu et al., 2001; Koshiji et al., 2005). […]
# Sp1 [4] = molecular target: T2, Sp1 (Oryctolagus cuniculus, UniProt G1SL61); assay: as above; type: binding, rabbit; settings: for Sp1 binding: translated in rabbit reticulocyte lysate; for competition with PAS1B for Sp1 binding: in vitro translated PAS1B, peptide 10, 100 and 1000 pmol
# T2 construct: from tissue; host or cells: rabbit reticulocyte lysate (in vitro translation system)
# T2 sequence (G1SL61 1-788): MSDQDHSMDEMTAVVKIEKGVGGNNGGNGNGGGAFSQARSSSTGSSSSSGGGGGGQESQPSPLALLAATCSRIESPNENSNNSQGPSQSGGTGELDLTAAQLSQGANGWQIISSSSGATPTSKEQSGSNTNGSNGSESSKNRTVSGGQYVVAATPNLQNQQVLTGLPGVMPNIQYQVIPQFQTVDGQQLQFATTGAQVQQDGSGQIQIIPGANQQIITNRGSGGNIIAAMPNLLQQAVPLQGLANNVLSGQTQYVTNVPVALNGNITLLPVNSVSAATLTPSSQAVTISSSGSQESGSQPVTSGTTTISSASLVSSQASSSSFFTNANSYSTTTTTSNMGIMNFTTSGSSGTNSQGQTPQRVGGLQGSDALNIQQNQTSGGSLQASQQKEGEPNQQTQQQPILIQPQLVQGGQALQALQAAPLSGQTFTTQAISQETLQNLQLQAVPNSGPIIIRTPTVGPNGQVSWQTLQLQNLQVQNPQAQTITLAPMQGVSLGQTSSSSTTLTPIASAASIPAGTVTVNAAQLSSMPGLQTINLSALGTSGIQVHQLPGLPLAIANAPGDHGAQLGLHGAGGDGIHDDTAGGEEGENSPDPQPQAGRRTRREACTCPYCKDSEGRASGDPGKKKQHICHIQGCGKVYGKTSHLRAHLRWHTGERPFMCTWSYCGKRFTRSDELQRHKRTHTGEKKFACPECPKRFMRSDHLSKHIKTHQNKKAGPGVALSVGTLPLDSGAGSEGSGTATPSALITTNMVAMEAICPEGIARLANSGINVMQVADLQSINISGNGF
# Experimental: as §3, §4
# NBS1 [5] = assay: NBS1 protein levels by immunoblot in U-2 OS cells expressing PAS-B variants; type: cell-based; settings: forced expression in U-2 OS cells
# Experimental: as §2
# U-2 OS cells were transfected with the Nucleofector system (Amaxa). Briefly, 1×10^6 cells were suspended in 100 μl pre-warmed Nucleofector Solution Kit V containing 2 μg plasmids. After electroporation the cells were transferred immediately into pre-warmed complete McCoy's 5A medium and seeded in 6-well plates. Cells were harvested 48 h after transfection.
# [6] = molecular target: synthetic peptide including HIF-2α residues 314-331
molecule,measurement,setting,value
5′-AACAGCATCTTTGATAGCAGT-3″ [EPAS1 siRNA],HIF-2α levels,HIF-2α,reduced specifically
same,effect on NBS1 and MSH2 downregulation and PGK1 upregulation in hypoxic cells,"NBS1 [1]; siRNA, hypoxia 1% O2 16 h",no obvious effects
same,effect on hypoxic CDC25A down-regulation and PGK1 up-regulation,CDC25A,no obvious effects
"CC(=O)N(O)CCCCCNC(=O)CCC(=O)N(O)CCCCCNC(=O)CCC(=O)N(O)CCCCCN [Desferrioxamine, reference compound]",intensified γ-H2AX foci,"U-2 OS cells; U-2 OS cells treated with desferrioxamine, versus hypoxia",much greater increase
same,"γ-H2AX foci per cell, Mean","U-2 OS cells; U-2 OS cells, desferrioxamine conditions for 72 h",40.62 foci per cell
"Oc1ccc(C=Cc2cc(O)cc(O)c2)cc1 [resveratrol, reference compound]",PKD1-mediated phosphorylation of consensus substrate peptide and HIF-2α peptide,recombinant PKD1; recombinant PKD1 preincubated with resveratrol (100 μM) for 10 min,abrogated
same,PAS2B-Sp1 immunoprecipitated complexes,Sp1 [2]; HeLa cells expressing PAS2B treated with 5 nM of resveratrol,yielded PAS2B-Sp1 immunoprecipitated complexes
same,Sp1 binding of PAS2B,Sp1 [3]; 100 μM during synthesis of PAS2B in rabbit reticulocyte lysate,established Sp1 binding
Ac-YGRKKRRQRRRGGGVWLETQGTVIYNPRN L-NH2 [HIF-2α peptide],phosphorylation of peptide substrate by recombinant PKD1,"recombinant PKD1; 150 μM substrate peptide, 30 min, room temperature",robustly phosphorylated
"HIF-2α: full-length HIF-2α, a close member of the HIF-α family",Sp1 binding,Sp1 [2],no Sp1 binding was detected
same,Sp1 binding,Sp1 [4],neither full-length HIF-2α nor PAS2B exhibited Sp1-binding activity
same,NBS1 repression,NBS1 [1]; adenovirus infection 16 h,no inhibition
PAS1B T322E: PAS1B mutant mimicking phosphorylation at Thr-322 with glutamic acid substitution,NBS1 protein levels,NBS1 [5],failed to do so
same,Sp1 binding,Sp1 [4],lost Sp1 binding
PAS1B T322V: PAS1B with T322V mutation,Sp1 binding,Sp1 [4],maintained PAS1B activity
PAS1B T327P: PAS1B with Thr-327 replaced by the HIF-2α residue proline,competition with PAS1B for Sp1 binding,Sp1 [4],neither PAS2B nor the PAS1B T327P mutant was able to compete
same,Sp1 binding,Sp1 [4],lost Sp1 binding
same,Sp1 binding,Sp1 [3],regained binding
PAS2B T324V: PAS2B with Thr-324 mutated to valine,NBS1 protein levels,NBS1 [5],gained its ability to inhibit NBS1 protein levels
same,Sp1 binding,Sp1 [4],established binding
same,γ-H2AX foci colocalized with 53BP1,U-2 OS cells; U-2 OS cells transiently expressing PAS-B variants,significantly increased
PAS2B: HIF-2α PAS-B (codons 195-331),Sp1 binding,Sp1 [2],no Sp1 binding was detected
same,competition with PAS1B for Sp1 binding,Sp1 [4],neither PAS2B nor the PAS1B T327P mutant was able to compete
same,Sp1 binding,Sp1 [4],neither full-length HIF-2α nor PAS2B exhibited Sp1-binding activity
same,Sp1 binding,Sp1 [3],regained binding
endogenous PKD1 immunoprecipitated from 786-O cells (protein) MSAPPVLRPPSPLLPVAAAAAAAAAALVPGSGPGPAPFLAPVAAPVGGISFHLQIGLSREPVLLLQDSSGDYSLAHVREMACSIVDQKFPECGFYGMYDKILLFRHDPTSENILQLVKAASDIQEGDLIEVVLSASATFEDFQIRPHALFVHSYRAPAFCDHCGEMLWGLVRQGLKCEGCGLNYHKRCAFKIPNNCSGVRRRRLSNVSLTGVSTIRTSSAELSTSAPDEPLLQKSPSESFIGREKRSNSQSYIGRPIHLDKILMSKVKVPHTFVIHSYTRPTVCQYCKKLLKGLFRQGLQCKDCRFNCHKRCAPKVPNNCLGEVTINGDLLSPGAESDVVMEEGSDDNDSERNSGLMDDMEEAMVQDAEMAMAECQNDSGEMQDPDPDHEDANRTISPSTSNNIPLMRVVQSVKHTKRKSSTVMKEGWMVHYTSKDTLRKRHYWRLDSKCITLFQNDTGSRYYKEIPLSEILSLEPVKTSALIPNGANPHCFEITTANVVYYVGENVVNPSSPSPNNSVLTSGVGADVARMWEIAIQHALMPVIPKGSSVGTGTNLHRDISVSISVSNCQIQENVDISTVYQIFPDEVLGSGQFGIVYGGKHRKTGRDVAIKIIDKLRFPTKQESQLRNEVAILQNLHHPGVVNLECMFETPERVFVVMEKLHGDMLEMILSSEKGRLPEHITKFLITQILVALRHLHFKNIVHCDLKPENVLLASADPFPQVKLCDFGFARIIGEKSFRRSVVGTPAYLAPEVLRNKGYNRSLDMWSVGVIIYVSLSGTFPFNEDEDIHDQIQNAAFMYPPNPWKEISHEAIDLINNLLQVKMRKRYSVDKTLSHPWLQDYQTWLDLRELECKIGERYITHESDDLRWEKYAGEQGLQYPTHLINPSASHSDTPETEETEMKALGERVSIL,in vitro kinase assay with immunoprecipitated endogenous PKD1 and synthetic peptides,[6],endogenous PKD1 immunoprecipitated from 786-O cells specifically phosphorylated HIF-2α at Thr-324
